From patent US20060229258A1, “Steroidal compositions containing hydroxycarboxylic acids and methods of using the same” (priority 2003, published 2006) come the findings set out here.

This data set is described as follows: Thermal degradation of prednicarbate during preparation of the emulsion. To be noted: in the emulsion during preparation. Format: physicochemical. Here is the method: In a particularly key aspect of the present inventive process, the emulsion is cooled from a temperature of about 55 to about 85° C. to a temperature of about 25 to about 45° C. before the prednicarbate is dispersed therein. This cooling step is particularly important because a substantial amount of prednicarbate degradation products will form at temperatures above 63° C. Accordingly, it is necessary to cool the emulsion before adding the prednicarbate to maintain the high prednicarbate purity and low amount of prednicarbate degradation products essential to the present inventive compositions.

Structures are written as SMILES.

`CCOC(=O)O[C@]1(C(=O)COC(=O)CC)CC[C@H]2[C@@H]3CCC4=CC(=O)C=C[C@]4(C)[C@H]3[C@@H](O)C[C@@]21C` [prednicarbate]: the “temperatures at which a substantial amount of prednicarbate degradation products will form” value is “above 63 °C”.
